# In ChEMBL document CHEMBL1142691, “Solid-phase total synthesis of kahalalide A and related analogues” (2005):
# Legend:
# [1] = system: Mycobacterium tuberculosis; test: Minimum inhibitory concentration against Mycobacterium tuberculosis; format: functional
# [2] = system: Mycobacterium tuberculosis; test: Concentration to inhibit of the growth of Mycobacterium tuberculosis at 12.5 ug/ml; format: functional
SMILES,MIC [1],inhibition at 12.5 µg/mL [2]
CC[C@H](C)C(=O)N[C@H](Cc1ccccc1)C(=O)N[C@@H]1C(=O)N[C@H](CC(C)C)C(=O)N[C@H](Cc2ccccc2)C(=O)N[C@H](CC(C)C)C(=O)N[C@@H]([C@@H](C)O)C(=O)N[C@@H](CO)C(=O)O[C@@H]1C,64 µg/mL,–
CCCCCC(=O)N[C@H](Cc1ccccc1)C(=O)N[C@@H]1C(=O)N[C@H](CC(C)C)C(=O)N[C@H](Cc2ccccc2)C(=O)N[C@H](CC(C)C)C(=O)N[C@@H]([C@@H](C)O)C(=O)N[C@@H](CO)C(=O)O[C@@H]1C,32 µg/mL,–
CCC(C)C(=O)N[C@H](Cc1ccccc1)C(=O)N[C@@H]1C(=O)N[C@H](CC(C)C)C(=O)N[C@H](Cc2ccccc2)C(=O)N[C@H](CC(C)C)C(=O)N[C@@H]([C@@H](C)O)C(=O)N[C@@H](CO)C(=O)O[C@@H]1C (some centres undefined),64 µg/mL,83%
